Data set [1] deals with mice. The experiment in a line: Telemetric monitoring of Tb and physical activity in mice. The class given is in vivo, mouse. To be noted: for block of PSB-0777-induced hypothermia: i.p. at -15 min, then PSB-0777 1 mg/kg i.p.
A further data set addresses A1AR. To be noted: cited from earlier work.
The subject of data set [2] is A2BAR. To be noted: rat; ref Hide et al., 1992; cited from earlier work.
Data set [3] deals with T1, mouse A3AR (Mus musculus, UniProt Q61618).
T1 sequence (Q61618 1-319): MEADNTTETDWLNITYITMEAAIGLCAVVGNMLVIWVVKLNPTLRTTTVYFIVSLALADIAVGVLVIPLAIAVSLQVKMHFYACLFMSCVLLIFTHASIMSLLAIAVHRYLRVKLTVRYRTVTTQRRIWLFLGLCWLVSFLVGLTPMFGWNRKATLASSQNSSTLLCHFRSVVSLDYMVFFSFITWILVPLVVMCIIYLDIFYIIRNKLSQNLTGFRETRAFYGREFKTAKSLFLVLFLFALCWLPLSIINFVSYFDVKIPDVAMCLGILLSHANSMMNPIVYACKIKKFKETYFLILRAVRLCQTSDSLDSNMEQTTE
The experiment in a line: Radioligand binding, mouse A3AR.

Data set [4] has as its target T2, mouse A1AR (Mus musculus, UniProt Q60612).
T2 sequence (Q60612 1-326): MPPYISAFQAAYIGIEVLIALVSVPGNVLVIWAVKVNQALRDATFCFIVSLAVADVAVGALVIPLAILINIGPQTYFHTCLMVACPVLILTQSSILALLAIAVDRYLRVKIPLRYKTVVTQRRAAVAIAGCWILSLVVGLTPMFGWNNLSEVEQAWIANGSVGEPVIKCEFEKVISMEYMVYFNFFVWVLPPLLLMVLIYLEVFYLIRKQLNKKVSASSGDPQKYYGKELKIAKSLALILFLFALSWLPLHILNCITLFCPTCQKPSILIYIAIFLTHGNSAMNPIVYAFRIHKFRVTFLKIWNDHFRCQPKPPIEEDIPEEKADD
The experiment in a line: Radioligand binding, mouse A1AR. The following applies: for A1AR rat: mouse ratio: ratio of rat Ki to mouse Ki at A1AR.

The next data set has as its target mouse A2AAR (Mus musculus, UniProt Q60613). The experiment in a line: Radioligand binding, mouse A2AAR.
In data set [5] the test system is 45 human receptors, channels, and transporters. Put plainly: PDSP off-target screen, whole panel. The class given is binding. The following applies: at <10 μM.
In data set [6] the test system is mice. To be noted: cited from earlier work.
Data set [7] concerns mice. The following applies: intraarterial CGS-21680; wild type mice; ref Ledent et al., 1997; cited from earlier work.
Data set [8] deals with mice. Put plainly: Indirect calorimetry. The following applies: CGS-21680 0.25 mg/kg, i.p.; C57BL/6J mice.
For data set [9] the following is noted: cited from earlier work.
The target in data set [10] is T2, mouse A1AR. The following applies: ref Carlin et al., 2017, cited from earlier work.
Data set [11] concerns the target human β3 adrenergic receptor (Homo sapiens, UniProt P13945). To be noted: read-out: Ki, human β3 adrenergic receptor; PDSP screen.
Another data set relates to brown adipose tissue. To be noted: by stimulation of brown adipose tissue; ref Gnad et al., 2014; cited from earlier work.
Data set [12] addresses human β1 adrenergic receptor (Homo sapiens, UniProt P08588). To be noted: read-out: Ki, human β1 adrenergic receptor; PDSP screen.
In data set [13] the target is A2BAR. The following applies: read-out: Ki, A2BAR (h), human, cited from earlier work.
A further data set concerns the target human 5HT2B receptor (Homo sapiens, UniProt P41595). Put plainly: PDSP off-target radioligand binding, 5HT2B receptor.
Data set [14] addresses serotonin transporter (SERT) (Homo sapiens, UniProt P31645). Put plainly: PDSP off-target radioligand binding, serotonin transporter.
The target of data set [15] is M3 acetylcholine receptor (Homo sapiens, UniProt P20309). The experiment in a line: PDSP off-target radioligand binding, M3 acetylcholine receptor.
Sequence of M3 acetylcholine receptor (P20309 whole entry): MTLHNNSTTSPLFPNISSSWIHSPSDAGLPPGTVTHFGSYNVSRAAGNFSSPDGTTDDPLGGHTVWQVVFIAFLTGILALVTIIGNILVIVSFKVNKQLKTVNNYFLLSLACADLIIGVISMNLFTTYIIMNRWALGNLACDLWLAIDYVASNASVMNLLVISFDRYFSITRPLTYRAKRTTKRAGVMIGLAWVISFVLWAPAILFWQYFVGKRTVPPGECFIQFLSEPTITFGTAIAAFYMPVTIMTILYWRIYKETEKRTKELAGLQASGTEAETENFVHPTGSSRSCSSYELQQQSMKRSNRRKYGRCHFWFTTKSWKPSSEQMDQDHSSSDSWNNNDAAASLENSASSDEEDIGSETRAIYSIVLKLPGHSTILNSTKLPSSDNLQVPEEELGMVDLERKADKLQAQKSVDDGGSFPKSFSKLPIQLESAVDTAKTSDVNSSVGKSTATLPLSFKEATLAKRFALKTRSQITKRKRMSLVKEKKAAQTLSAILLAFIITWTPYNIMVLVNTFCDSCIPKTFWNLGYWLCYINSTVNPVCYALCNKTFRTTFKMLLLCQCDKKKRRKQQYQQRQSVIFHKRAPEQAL
Data set [16] concerns the target T1, mouse A3AR. To be noted: read-out: mouse Ki, A3AR, ref Carlin et al., 2017; cited from earlier work.
Setting [17] is: read-out: mouse Ki, A1AR, mouse, current results, ± SEM.
The mark [18] stands for this setting: read-out: mouse Ki, A2AAR, mouse, current results, ± SEM.
Where [19] appears, read: CGS-21680 0.01–1 mg/kg, i.p., C57BL/6J mice.
The mark [20] stands for this setting: PSB-0777 ≤3 mg/kg, i.p., wild type mice.
Setting [21] is: SCH442416 3 mg/kg, i.p., alone, data not shown.
Where [22] appears, read: preladenant 1 mg/kg, i.p., alone, data not shown.

Read-outs that look alike come from different tables or passages of the source. Marks after values point to notes of the source that are not given here.

Sequence of mouse A2AAR (Q60613 whole entry): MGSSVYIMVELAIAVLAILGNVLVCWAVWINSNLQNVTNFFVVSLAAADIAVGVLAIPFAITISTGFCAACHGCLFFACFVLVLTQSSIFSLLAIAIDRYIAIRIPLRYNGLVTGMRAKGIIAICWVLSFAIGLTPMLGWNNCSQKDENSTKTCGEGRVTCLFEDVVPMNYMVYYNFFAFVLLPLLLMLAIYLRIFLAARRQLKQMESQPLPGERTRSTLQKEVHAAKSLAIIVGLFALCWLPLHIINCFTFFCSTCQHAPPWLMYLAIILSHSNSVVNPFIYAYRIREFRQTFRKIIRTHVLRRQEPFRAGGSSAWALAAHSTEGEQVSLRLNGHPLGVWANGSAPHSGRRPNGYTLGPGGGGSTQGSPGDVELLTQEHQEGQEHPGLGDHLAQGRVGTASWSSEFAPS
Sequence of human β3 adrenergic receptor (P13945 whole entry): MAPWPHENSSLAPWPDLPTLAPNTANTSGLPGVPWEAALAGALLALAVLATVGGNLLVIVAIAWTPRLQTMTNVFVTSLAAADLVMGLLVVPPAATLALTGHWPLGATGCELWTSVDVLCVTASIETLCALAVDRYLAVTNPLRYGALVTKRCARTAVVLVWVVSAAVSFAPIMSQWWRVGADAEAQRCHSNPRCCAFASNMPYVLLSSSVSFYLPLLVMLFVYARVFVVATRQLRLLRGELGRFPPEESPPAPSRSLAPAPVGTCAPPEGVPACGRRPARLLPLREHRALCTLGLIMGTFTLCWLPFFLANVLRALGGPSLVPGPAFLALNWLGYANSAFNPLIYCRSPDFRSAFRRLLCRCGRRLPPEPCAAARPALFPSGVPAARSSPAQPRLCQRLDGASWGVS
Sequence of human 5HT2B receptor (P41595 whole entry): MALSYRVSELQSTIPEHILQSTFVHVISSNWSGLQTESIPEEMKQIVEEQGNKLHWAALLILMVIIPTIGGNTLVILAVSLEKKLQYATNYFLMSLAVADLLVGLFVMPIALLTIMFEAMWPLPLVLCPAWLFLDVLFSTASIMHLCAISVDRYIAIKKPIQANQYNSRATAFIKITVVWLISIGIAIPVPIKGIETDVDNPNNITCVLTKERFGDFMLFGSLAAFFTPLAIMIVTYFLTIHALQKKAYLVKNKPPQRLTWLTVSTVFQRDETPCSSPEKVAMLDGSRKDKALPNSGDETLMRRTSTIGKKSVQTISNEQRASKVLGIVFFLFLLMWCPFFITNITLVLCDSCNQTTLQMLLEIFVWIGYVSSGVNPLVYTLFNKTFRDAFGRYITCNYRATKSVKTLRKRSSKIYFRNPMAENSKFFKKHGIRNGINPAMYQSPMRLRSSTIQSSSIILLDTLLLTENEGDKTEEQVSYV
Sequence of human β1 adrenergic receptor (P08588 whole entry): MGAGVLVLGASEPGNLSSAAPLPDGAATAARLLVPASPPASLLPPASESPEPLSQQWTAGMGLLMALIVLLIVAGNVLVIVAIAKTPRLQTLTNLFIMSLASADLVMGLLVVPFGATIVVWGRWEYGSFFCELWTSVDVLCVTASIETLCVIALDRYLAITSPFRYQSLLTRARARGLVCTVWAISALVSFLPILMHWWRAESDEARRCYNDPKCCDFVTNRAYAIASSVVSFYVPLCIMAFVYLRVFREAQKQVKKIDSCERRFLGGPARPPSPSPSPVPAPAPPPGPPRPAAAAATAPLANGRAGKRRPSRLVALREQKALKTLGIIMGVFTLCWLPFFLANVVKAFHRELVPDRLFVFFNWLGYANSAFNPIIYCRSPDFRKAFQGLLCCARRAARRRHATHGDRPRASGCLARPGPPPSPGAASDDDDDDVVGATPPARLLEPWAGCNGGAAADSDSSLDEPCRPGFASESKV
Sequence of serotonin transporter (SERT) (P31645 whole entry): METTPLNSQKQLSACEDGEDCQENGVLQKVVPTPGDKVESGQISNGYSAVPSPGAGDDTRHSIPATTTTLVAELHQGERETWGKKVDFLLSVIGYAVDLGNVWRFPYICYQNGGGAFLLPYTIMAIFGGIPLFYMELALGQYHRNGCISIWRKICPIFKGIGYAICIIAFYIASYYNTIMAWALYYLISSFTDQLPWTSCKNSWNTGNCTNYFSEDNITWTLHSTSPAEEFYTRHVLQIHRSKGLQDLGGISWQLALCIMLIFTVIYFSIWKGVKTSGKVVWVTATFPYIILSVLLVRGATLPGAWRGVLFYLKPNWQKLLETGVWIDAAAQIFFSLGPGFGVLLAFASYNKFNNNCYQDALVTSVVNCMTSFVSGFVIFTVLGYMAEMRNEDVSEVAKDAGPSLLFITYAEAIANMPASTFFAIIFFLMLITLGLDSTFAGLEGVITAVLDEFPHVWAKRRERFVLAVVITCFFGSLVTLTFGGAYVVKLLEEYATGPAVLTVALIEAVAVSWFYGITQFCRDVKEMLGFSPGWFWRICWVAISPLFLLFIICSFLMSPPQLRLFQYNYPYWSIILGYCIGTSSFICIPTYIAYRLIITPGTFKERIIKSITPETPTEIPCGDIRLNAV

In the case of `CCNC(=O)[C@H]1O[C@@H](n2cnc3c(N)nc(NCCc4ccc(CCC(=O)NCCN)cc4)nc32)[C@H](O)[C@@H]1O` [APEC, 2-[[2-[4-[2-(2-aminoethyl)-aminocarbonyl]ethyl]phenyl]ethylamino]-5′-N-ethyl-carboxamidoadenosine], the Tb response entry in the data set with mice [1] (APEC 1.7 μg/kg i.p.) is recorded as “blunting the handling hyperthermia”. Besides, the “Tb response (hypothermia)” value is listed as “robust hypothermia” in the data set with mice [1] (APEC 50 μg/kg i.p.); “attenuated” with mice [1] (APEC i.p., Adora1−/−;Adora3−/− mice); “attenuated” in the data set with mice [1] (APEC i.p., Adora2a−/− mice); “fully intact” in the data set with mice [1] (APEC i.p., Adora2b−/− mice). The physical activity entry in the data set on mice [1] (APEC 50 μg/kg i.p.) is recorded as “hypoactivity”. Moreover, the Ki on A1AR (read-out: rat Ki, A1AR, ref Kim et al., 1994) was 400 nM; at mouse A3AR [3] (read-out: mouse Ki, A3AR, mouse, current results, ± SEM), 55.1 ± 4.3 nM; at mouse A1AR [4] (setting [17]), 4.17 ± 0.15 nM; at mouse A2AAR (setting [18]) it was 3.57 ± 0.22 nM. Moreover, the “A2BAR (r) activity” value in the data set with A2BAR [2] is “inactive (r) ^h”. Moreover, on mouse A1AR [4] (mouse vs rat A1AR), the “binding to mouse A1AR better than rat A1AR” value is ~ 100 fold. In addition, the “A1AR rat: mouse ratio” value at mouse A1AR [4] is on record as 95.

As for `CCNC(=O)[C@H]1O[C@@H](n2cnc3c(N)nc(NCCc4ccc(CCC(=O)O)cc4)nc32)[C@H](O)[C@@H]1O` [CGS-21680, 2-[p-(2-carboxyethyl)phenethylamino]-5′-N-ethylcarboxamidoadenosine], in [5], the off-target activities detected entry is given as “none”. In addition, the “Tb response (hypothermia)” value with mice [1] (CGS-21680 0.01 mg/kg i.c.v., C57BL/6J mice) is on record as “No hypothermia”; in the data set on mice [1] (CGS-21680 0.5 mg/kg, i.p., Adora1−/−;Adora3−/− mice) it was “intact”; in the data set with mice [1] (CGS-21680 0.5 mg/kg, i.p., Adora2a−/− mice) it was “did not cause hypothermia”; in the data set on mice [1] (CGS-21680 0.5 mg/kg, i.p., KitW−sh/W−sh mice (lack mast cells)), “showed a hypothermic response”; in the data set on mice [1] (setting [19]), “dose-dependent hypothermia”. Moreover, in the data set with mice [1] (setting [19]), the physical activity result is on record as “hypoactivity”. The hypothermia entry is reported as “mild hypothermia” in the data set with mice [6] (CGS-21680, high i.c.v. dose, ref Anderson et al., 1994) and “mild hypothermia” with mice [6] (CGS-21680, peripheral dosing, ref Eisner et al., 2017). The blood pressure result in the data set with mice [7] is recorded as “caused hypotension”. Besides, the food intake entry in the data set with mice [8] is on record as “reduced food intake”. The “metabolic rate (total energy expenditure)” value in the data set on mice [8] was “marked reduction in metabolic rate”. The “time of Tb nadir” value in the data set with mice [8] is ~ 65 minutes. The “time of energy expenditure nadir” value in the data set with mice [8] was ~ 26 minutes. Moreover, the brain penetrant entry in data set [9] (ref Nikodijevic et al., 1990) was “no ^d”.

`CCN(CC)CC.Nc1nc2c(cnn2CCCc2ccc(OCc3ccc(S(=O)(=O)O)cc3)cc2)c2nc(-c3ccco3)nn12` [MRS7352, 4-((4-(3-(5-amino-2-(furan-2-yl)-7H-pyrazolo[4,3-e][1,2,4]triazolo[1,5-c]pyrimidin-7-yl)propyl)phenoxy)methyl)benzenesulfonate triethylammonium salt]: the physical activity entry in the data set on mice [1] (MRS7352 3 mg/kg, i.p.) was “without affecting physical activity”. For the same molecule, the “block of PSB-0777-induced hypothermia” value in the data set with mice [1] (MRS7352 3 mg/kg) is “completely blocked”.

Take `OC[C@H]1O[C@@H](n2cnc3c(NC4CCCC4)ncnc32)[C@H](O)[C@@H]1O` [N^6-cyclopentyladenosine]: the “advantage in binding affinity (A1AR vs A3AR)” value at mouse A1AR [10] (A1AR vs A3AR) is reported as 2000 fold.

For `N.Nc1nc(SCCc2ccc(S(=O)(=O)O)cc2)nc2c1ncn2[C@@H]1O[C@H](CO)[C@@H](O)[C@H]1O` [PSB-0777, 4-[2-[(6-Amino-9-b-D-ribofuranosyl-9H-purin-2-yl)thio]ethyl]benzenesulfonic acid ammonium salt], the “Tb response (hypothermia)” value is recorded as “abolished” in the data set on mice [1] (PSB-0777 i.p., Adora2a−/− mice) and “dose-dependent hypothermia” in the data set on mice [1] (setting [20]). In addition, the physical activity result in the data set on mice [1] (setting [20]) is “hypoactivity”. Moreover, the Ki on A1AR (read-out: rat Ki, A1AR, ref El-Tayeb et al., 2011) is at least 10000 nM; at mouse A1AR [4] (setting [17]) it was 18.4 ± 1.1 nM; in data set [11], 3300 nM; at mouse A2AAR (setting [18]), 193 ± 28 nM; in [12], 4400 nM; on A2BAR [13] (ref El-Tayeb et al., 2011), above 10000 nM. For the same molecule, the “% inhibition at 10 μM, mouse A3AR” value at mouse A3AR [3] (mouse, 10 μM, current results, ± SEM) was 26 ± 1% ^e. For the same molecule, the “A1AR rat: mouse ratio” value at mouse A1AR [4] is above 500. Further, the energy expenditure result with brown adipose tissue is listed as “increased energy expenditure”.

Consider `COc1ccc(CCCn2ncc3c2nc(N)n2nc(-c4ccco4)nc32)cc1` [SCH442416, 2-(2-furyl)-7-[3-(4-methoxyphenyl)propyl]-7H-pyrazolo[4,3-e][1,2,4]triazolo[1,5-c]pyrimidin-5-amine], for which the “block of PSB-0777-induced hypothermia” value with mice [1] (SCH442416 0.6 mg/kg) is “largely blocked”. Besides, in the data set with mice [1] (SCH442416 0.6 mg/kg, i.p., by itself, p=0.078), the physical activity result is listed as “trended to increase activity”. The Tb result was “trended to increase” with mice [1] (SCH442416 0.6 mg/kg, i.p., by itself, p=0.10) and “increase in Tb” in the data set on mice [1] (setting [21]). Also, the locomotor activity result with mice [1] (setting [21]) is listed as “increased locomotor activity”. In addition, the Ki is 1820 nM at A1AR (read-out: rat Ki, A1AR, ref Todde et al., 2000); 910 nM on human 5HT2B receptor; 765 nM on mouse A1AR [10] (read-out: mouse Ki, A1AR, mouse); 6100 nM in [14]; 6800 nM in data set [15]; above 10000 nM at mouse A3AR [16]. Moreover, at A2BAR [13] (ref Todde et al., 2000), the Ki is above 10000 nM. In addition, the brain penetrant entry in [9] (ref Todde et al., 2000) is reported as “yes ^j”.

For the molecule `Nc1ncnc2c1ncn2[C@@H]1O[C@H](CO)[C@@H](O)[C@H]1O` [adenosine], in the data set with mice [1] (adenosine 100 mg/kg, i.p., Adora1−/−;Adora3−/− mice), the “Tb response (hypothermia)” value is recorded as “robust hypothermia”.

Take `COCCOc1ccc(N2CCN(CCn3ncc4c3nc(N)n3nc(-c5ccco5)nc43)CC2)cc1` [preladenant]: in the data set with mice [1] (setting [22]), the Tb entry was “increase in Tb” and the locomotor activity entry is reported as “increased locomotor activity”.

As for `CNC(=O)c1cnn(-c2nc(N)c3ncn([C@@H]4O[C@H](CO)[C@@H](O)[C@H]4O)c3n2)c1` [regadenoson, 1-[6-amino-9-[(2R,3R,4S,5R)-3,4-dihydroxy-5-(hydroxymethyl)oxolan-2-yl]purin-2-yl]-N-methylpyrazole-4-carboxamide], the inhibition at 10 µM on mouse A3AR [3] (read-out: % inhibition at 10 μM, mouse A3AR) was 7 ± 2%. The Ki at mouse A1AR [4] is 7.75 ± 0.05 nM; at mouse A2AAR, 77.2 ± 6.3 nM; on A2BAR [13] (ref Gao et al., 2001), above 100000 nM. At mouse A1AR [4] (mouse binding, Table 1), the “binding to A1AR more tightly than to A2AAR” value turned out to be 10 fold. In addition, the “binding to mouse A1AR better than human A1AR” value on mouse A1AR [4] (mouse vs human A1AR (human value Gao et al., 2001)) is above 1000 fold.

A word on the Ki: it is the dissociation constant of the complex between target and ligand, obtained from inhibition or displacement. As a reminder, the inhibition is the relative decrease from the control value, in per cent.

The values above are taken from article PMC6067974 (Neuropharmacology, 2018).
